# What was measured:
# [1] = tested on: cholesterol biosynthesis in HepG2 cells; assay: HepG2 cell culture model - 14C-acetate incorporation assay (cholesterol synthesis); assay type: cell-based; settings: 3-4 hours incubation, 2-14C-acetate incorporation into digitonin-precipitable sterols, vs. vehicle controls; for inhibition at 10 µM: Homo sapiens, read-out: Sterol Biosynthesis % Inhibition 10µM
# Procedure: HepG2 Cell Culture Model - 14C-Acetate Incorporation Assay
# After 16 hours in LDS containing media, test compounds were added in dimethylsulfoxide vehicle (0.5% v/v final conc.) for an incubation period of 3-4 hours. Cholesterol synthesis was then directly determined by 2-14C-acetate (1.8 mCi/mmol, 0.5 µCi/ml) incorporation for 30 to 60 minutes (previously shown to be time-linear) into total digitonin-precipitable sterols. […] Percent inhibition was calculated from the average of duplicates vs. triplicate vehicle controls conducted simultaneously.
# HMG-CoA reductase = assay: HepG2 cell culture model - HMG-CoA reductase suppression assay; assay type: cell-based; settings: HepG2 cells, 4 hours of incubation at 37°, decrease in specific activity vs. vehicle controls
# Procedure: HepG2 Cell Culture Model - HMG-CoA Reductase Suppression Assay
# HMG-CoA reductase suppression in HepG2 cells was conducted by growing cells in RPMT-1640 plus 10% FBS on 100 mm plates, and when cells reached approximately 75% confluency, inducing with LDS (as described above) for 16 hours prior to assays. Compounds were added using dimethylsulfoxide vehicle (0.5% v/v, final) and after 4 hours of incubation at 37°, cells were harvested by scraping. Cell pellets were rinsed and lysed by sonication in 1.7 ml cold 50 mM imidazole-HCl, pH 7.2, 50 mM NaCl, 10 mM EDTA, 10 mM EGTA, 5mM DTT, and 40 µM leupeptin). Lysates were centrifuged at 150 x g and the supernatant was centrifuged at 100,000 x g in a Beckman airfuge to isolate the post-nuclear total membrane fraction. The membranes were resuspended in 50 mM imidazole-HCl, pH 7.2, 250 mM NaCl, 5 mM DTT, and 20 µM leupeptin and used for the assay of HMG-CoA reductase activity by the radiochemical procedure as described previously by Parker et al., J. Biol. Chem., 264: 4877-4887, (1989). Values were normalized for protein content by the Lowry method as cited previously (ibid). HMG-CoA reductase percent suppression was calculated as the decrease in specific activity of HMG-CoA reductase for treated cells vs. controls receiving vehicle. Averages of duplicate cell determinations assayed in duplicate were taken.
# [2] = tested on: Normocholesterolemic Chickens; assay: In vivo evaluation in normocholesterolemic chickens - serum cholesterol pools; settings: 6-week old male chickens, 50 ppm in diet for four weeks
# Procedure: In Vivo Biological Evaluation in Normocholesterolemic Chickens
# Newborn male chicks (10 for each group) were raised on a standard corn-soybean based control diet for two weeks and then switched to either control or experimental diets for four weeks. Drug treatment consisted of the addition of test compounds to the corn-soybean-based diet at a concentration of 50 ppm. At the end of the feeding period, all the birds were fasted (36 hours) and refed (48 hours) to induce cholesterolgenic enzymes prior to sacrifice. The specific activity of HMGR, total serum cholesterol levels, LDL cholesterol and HDL cholesterol pools were determined (Table 6).
Compound,inhibition at 10 µM [1] [%],further results
"CC(C)=CCC/C(C)=C/CC/C(C)=C/CCCOc1ccc(O)c(CCO)c1 [Example 18, 2-Hydroxy-5-[(5,9,13-Trimethyl-4(E), 8(E), 12-tetradecatrienyl)oxy]benzene ethanol]",64,
"CC(C)=CCC/C(C)=C/CC/C(C)=C/CCCOc1ccc(O)cc1 [Example 8, 4-[(5,9,13-Trimethyl-4(E), 8(E),12-tetradecatrienyl)oxy]phenol]",71,HMG-CoA Reductase Suppression % 10µM (HMG-CoA reductase): 29%
"3,5-Dimethoxy-4-[(5,9,13-Trimethyl-4(E), 8(E), 12-tetradecatrienyl)oxy]phenol [Example 16]",,Sterol Biosynthesis % Inhibition 10µM [1]: 66%
"CC(C)=CCC/C(C)=C/CC/C(C)=C/CCCOc1c(F)c(F)c(O)c(F)c1F [Example 19, 2,3,5,6-Tetrafluoro-4-[(5,9,13-Trimethyl-4(E), 8(E)-,12-tetradecatrienyl)oxy]phenol]",55,
"CC(C)=CCC/C(C)=C/CC/C(C)=C/CCCSc1ccc(O)cc1 [Example 30, 4-[(5,9,13-Trimethyl-4(E), 8(E),12-tetradecatrienyl)thio]phenol]",68,HMG-CoA Reductase Suppression % 10µM (HMG-CoA reductase): 29%
"CC(C)=CCC/C(C)=C/CC/C(C)=C/CCCOc1ccc(B2OB(c3ccc(OCCC/C=C(\C)CC/C=C(\C)CCC=C(C)C)cc3)OB(c3ccc(OCCC/C=C(\C)CC/C=C(\C)CCC=C(C)C)cc3)O2)cc1 [Example 29, 2,4,6-Tris-[4-[(5,9,13-Trimethyl-4(E), 8(E),12-tetradecatrienyl)oxy]phenyl]boroxin]",99,
"CC(C)=CCC/C(C)=C/CC/C(C)=C/CCC[S+]([O-])c1ccc(O)cc1 (centres unmarked) [Example 31, 4-[(5,9,13-trimethyl-4(E),8(E),12-tetradecatrienyl)sulfinyl]phenol]",47,
"CC(C)=CCC/C(C)=C/CC/C(C)=C/CCCOc1ccc(N)cc1 [Example 24, 4-[(5,9,13-Trimethyl-4(E), 8(E),12-tetradecatrienyl)oxy]aniline]",65,
"2-Hydroxy-4,6-Dimethyl-5-[(5,9,13-Trimethyl-4(E), 8(E), 12-Tetradecatrienyl)oxy]-1,3-Benzenedimethanol [Example 17]",,Sterol Biosynthesis % Inhibition 10µM [1]: 72%
"4-[(5,9,13-Trimethyl-4(E), 8(E),12-tetradecatrienyl)oxy]benzenemethanol [Example 21]",,HMG-CoA Reductase Suppression % 10µM (HMG-CoA reductase): 9%; Sterol Biosynthesis % Inhibition 10µM [1]: 64%
"CC(C)=CCC/C(C)=C/CC/C(C)=C/CCCOc1ccccc1O [Example 6, 2-[(5,9,13-Trimethyl-4(E), 8(E),12-tetradecatrienyl)oxy]phenol]",10,
"CC(C)=CCC/C(C)=C/CC/C(C)=C/CCCOc1ccccc1 [Example 5, (5,9,13-Trimethyl-4(E), 8(E),12-tetradecatrienyl)oxy benzene]",12,
"CC(C)=CCC/C(C)=C/CC/C(C)=C/CCCNc1ccc(O)cc1 [Example 36, 4-[(5,9,13-Trimethyl-4(E), 8(E),12-tetradecatrienyl)amino]phenol]",43,
"CC(C)=CCC/C(C)=C/CC/C(C)=C/CCCOc1ccc(S(N)(=O)=O)cc1 [Example 28, 4-[(5,9,13-Trimethyl-4(E), 8(E),12-Tetradecatrienyl)oxy] benzenesulfonamide]",58,
"CC(C)=CCCC(C)=CCCC(C)=CCCCOc1c(C)cc(O)cc1C [Example 13, 3,5-Dimethyl-4-[(5,9,13-Trimethyl-4,8, 12-tetradecatrienyl)oxy]phenol]",70,HMG-CoA Reductase Suppression % 10µM (HMG-CoA reductase): 45%
"CC(C)=CCC/C(C)=C/CC/C(C)=C/CCCOc1ccc(C(N)=O)cc1 [Example 23, 4-[(5,9,13-Trimethyl-4(E),8(E),12-tetradecatrienyl)oxy]benzamide]",42,
"CC(C)=CCC/C(C)=C/CC/C(C)=C/CCCCc1ccc(O)cc1 [Example 33, 4-[6,10,14-Trimethyl-5(E), 9(E), 13-Pentadecatrienyl]phenol]",50,

Compound,inhibition at 10 µM [1] [%],further results
"CC(C)=CCC/C(C)=C/CC/C(C)=C/CCCOc1c(C)cc(OC(N)=O)cc1C [Example 14, 3,5-Dimethyl-4-[(5,9,13-Trimethyl-4(E), 8(E), 12-tetradecatrienyl)oxy]phenyl carbamate]",65,HMG-CoA Reductase Suppression % 10µM (HMG-CoA reductase): 21%
"1-(4-Hydroxyphenyl)-6,10,14-Trimethyl-5(E), 9(E), 13-Pentadecatrien-1- One [Example 35]",,Sterol Biosynthesis % Inhibition 10µM [1]: 78%
"CC(C)=CCC/C(C)=C/CC/C(C)=C/CCCN(C(=O)OC(C)(C)C)c1ccc(O)cc1 [Example 37, 1,1-Dimethylethyl-(4-Hydroxyphenyl)-(5,9,13-Trimethyl-4(E), 8(E), 12-tetradecatrienyl) carbamate]",79,
"COC(=O)Nc1cc(C)c(OCCC/C=C(\C)CC/C=C(\C)CCC=C(C)C)c(C)c1 [Example 27, N-[[3,5-Dimethyl-4-[(5,9,13-Trimethyl-4(E), 8(E), 12-tetradecatrienyl)oxy]]phenyl]methyl carbamate]",47,
"CC(C)=CCC/C(C)=C/CC/C(C)=C/CCCS(=O)(=O)c1ccc(O)cc1 [Example 32, 4-[(5,9,13-trimethyl-4(E),8(E),12-tetradecatrienyl)sulfonyl]phenol]",38,
"4-[2-(5,9,13)-Trimethyl-4(E), 8(E), 12-tetradecatrienyl)-1,3-dithian-2-yl]phenol [Example 34]",,Sterol Biosynthesis % Inhibition 10µM [1]: 43%
"CC(C)=CCC/C(C)=C/CC/C(C)=C/COc1ccc(O)c(C)c1C [Example 9, 2,3-Dimethyl-4-[(3,7,11-Trimethyl-2(E), 6(E), 10-dodecatrienyl)oxy]phenol]",36,
"CC(C)=CCC/C(C)=C/CC/C(C)=C/CCC(C)(C)Oc1ccc(O)cc1 [Example 39, 4-[(1,1,5,9,13-Pentamethyl-4(E), 8(E), 12-tetradecatrienyl)oxy]phenol hydrate]",37,
"CC(C)=CCC/C(C)=C/CC/C(C)=C/CCOc1ccc(O)c(C)c1C [Example 10, 2,3-Dimethyl-4-[(4,8,12-Trimethyl-3(E),7(E), 11-tridecatrienyl)oxy]phenol]",58,HMG-CoA Reductase Suppression % 10µM (HMG-CoA reductase): 38%
"CC(C)=CCC/C(C)=C/CC/C(C)=C/CCCOc1cccc(CO)c1 [Example 22, 3-[(5,9,13-Trimethyl-4(E), 8(E),12-Tetradecatrienyl)oxy]benzenemethanol]",73,
"CC(=O)c1cc(O)ccc1OCCC/C=C(\C)CC/C=C(\C)CCC=C(C)C [Example 20, 1-[5-Hydroxy-2-(5,9,13-Trimethyl-4(E), 8(E),12-tetradecatrienyloxy)phenyl]ethanone]",69,
"CC(C)=CCC/C(C)=C/CC/C(C)=C/CCCOc1cccc(O)c1 [Example 7, 3-[(5,9,13-Trimethyl-4(E), 8(E),12-tetradecatrienyl)oxy]phenol]",38,
"CC(C)=CCC/C(C)=C/CC/C(C)=C/CCCOc1c(C)cc(O)cc1C [Example 12, 3,5-Dimethyl-4-[(5,9,13-Trimethyl-4(E), 8(E), 12-tetradecatrienyl)oxy] phenol]",70,HMG-CoA Reductase Suppression % 10µM (HMG-CoA reductase): 35%; HDL Cholesterol [2]: 70 % of Control; LDL Cholesterol [2]: 50 % of Control; Total Cholesterol ([2]; serum): 67 % of Control
"CC(C)=CCC/C(C)=C/CC/C(C)=C/CCCOc1c(C)cc(N)cc1C [Example 26, 3,5-Dimethyl-4-[(5,9,13-Trimethyl-4(E), 8(E),12-tetradecatrienyl)oxy] aniline]",51,
"CC(C)=CCC/C(C)=C/CC/C(C)=C/CCCOc1ccc(O)c(C)c1C [Example 11, 2,3-Dimethyl-4-[(5,9,13-Trimethyl-4(E), 8(E), 12-tetradecatrienyl)oxy]phenol]",64,HMG-CoA Reductase Suppression % 10µM (HMG-CoA reductase): 53%
"CC(C)=CCC/C(C)=C/CC/C(C)=C/CCCOc1c(C)cc(O)c(C)c1C [Example 15, 2,3,5-Trimethyl-4-[(5,9,13-Trimethyl-4(E),8(E), 12-tetradecatrienyl)oxy] phenol]",48,
